Data taken from patent EP3212201B1, “NUCLEOSIDE KINASE INHIBITORS” (BCI Pharma, priority 2014, dated 2016).

Tests used:
Assay in all cases: FRET-based coupled-enzyme protein kinase inhibition assay
Type in all cases: biochemical
Details in all cases: compound at 10 µM, 1% DMSO
IKBKB (IKK beta) = target: T1, IKBKB (IKK beta) (Homo sapiens, UniProt O14920)
T1 sequence (O14920 1-756): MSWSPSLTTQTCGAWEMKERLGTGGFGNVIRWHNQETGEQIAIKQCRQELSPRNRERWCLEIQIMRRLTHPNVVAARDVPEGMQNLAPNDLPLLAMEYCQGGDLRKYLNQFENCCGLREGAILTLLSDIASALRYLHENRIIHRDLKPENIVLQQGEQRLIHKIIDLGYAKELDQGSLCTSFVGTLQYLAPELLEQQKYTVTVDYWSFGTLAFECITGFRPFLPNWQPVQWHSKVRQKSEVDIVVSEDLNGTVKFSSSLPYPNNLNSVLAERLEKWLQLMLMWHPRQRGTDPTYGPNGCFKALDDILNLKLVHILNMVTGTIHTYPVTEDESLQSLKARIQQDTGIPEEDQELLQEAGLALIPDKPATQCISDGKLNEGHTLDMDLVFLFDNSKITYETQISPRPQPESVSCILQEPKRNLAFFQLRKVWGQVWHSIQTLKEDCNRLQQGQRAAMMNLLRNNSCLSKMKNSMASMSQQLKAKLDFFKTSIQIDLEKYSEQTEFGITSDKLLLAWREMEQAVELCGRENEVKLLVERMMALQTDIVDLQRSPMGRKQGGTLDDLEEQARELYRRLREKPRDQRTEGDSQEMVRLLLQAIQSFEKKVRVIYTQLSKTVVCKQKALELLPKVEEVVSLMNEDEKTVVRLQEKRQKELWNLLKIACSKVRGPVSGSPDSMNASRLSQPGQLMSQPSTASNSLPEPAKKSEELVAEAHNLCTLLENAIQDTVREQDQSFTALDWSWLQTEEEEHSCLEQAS
Outline: (§1)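 FRET peptide (coumarin donor, fluorescein acceptor) was phosphorylated by each kinase in 50 mM HEPES pH 7.5, 10 mM MgCl2, 1 mM EDTA, 0.01% BRIJ-35 for 60 min at room temperature. ATP was at apparent Km, compounds in 1% DMSO. Protease development reagent then cleaved non-phosphorylated peptide over 60 min.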

PRKACA (PKA) = PRKACA (PKA) (Homo sapiens, UniProt P17612)
Outline: as §1

SRC = SRC (Homo sapiens, UniProt P12931)
Outline: as §1

INSR = INSR (Homo sapiens, UniProt P06213)
Outline: as §1

ABL1 = ABL1 (Homo sapiens, UniProt P00519)
Outline: as §1

MAPK14 (p38 alpha) = MAPK14 (p38 alpha) (Homo sapiens, UniProt Q16539)
Outline: as §1

ACVR1B (ALK4) = target: T2, ACVR1B (ALK4) (Homo sapiens, UniProt P36896)
T2 sequence (P36896 24-505): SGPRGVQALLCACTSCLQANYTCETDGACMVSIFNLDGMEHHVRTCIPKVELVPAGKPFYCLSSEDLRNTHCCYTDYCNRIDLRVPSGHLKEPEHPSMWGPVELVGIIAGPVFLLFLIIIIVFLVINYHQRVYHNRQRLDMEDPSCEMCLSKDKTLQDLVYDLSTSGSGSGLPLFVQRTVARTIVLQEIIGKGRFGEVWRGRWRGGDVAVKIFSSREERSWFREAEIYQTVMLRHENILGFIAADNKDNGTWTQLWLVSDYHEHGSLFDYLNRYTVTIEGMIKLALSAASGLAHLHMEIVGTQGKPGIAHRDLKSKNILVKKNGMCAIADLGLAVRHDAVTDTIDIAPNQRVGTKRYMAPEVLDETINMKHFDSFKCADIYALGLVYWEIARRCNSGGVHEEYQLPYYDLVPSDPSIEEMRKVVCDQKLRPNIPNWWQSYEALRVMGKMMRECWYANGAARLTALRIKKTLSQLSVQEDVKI
Outline: as §1

PAK4 = PAK4 (Homo sapiens, UniProt O96013)
Outline: as §1

IGF1R = IGF1R (Homo sapiens, UniProt P08069)
Outline: as §1

RPS6KA3 (RSK2) = RPS6KA3 (RSK2) (Homo sapiens, UniProt P51812)
Outline: as §1

Sequence of IGF1R (P08069 31-1367, species assumed): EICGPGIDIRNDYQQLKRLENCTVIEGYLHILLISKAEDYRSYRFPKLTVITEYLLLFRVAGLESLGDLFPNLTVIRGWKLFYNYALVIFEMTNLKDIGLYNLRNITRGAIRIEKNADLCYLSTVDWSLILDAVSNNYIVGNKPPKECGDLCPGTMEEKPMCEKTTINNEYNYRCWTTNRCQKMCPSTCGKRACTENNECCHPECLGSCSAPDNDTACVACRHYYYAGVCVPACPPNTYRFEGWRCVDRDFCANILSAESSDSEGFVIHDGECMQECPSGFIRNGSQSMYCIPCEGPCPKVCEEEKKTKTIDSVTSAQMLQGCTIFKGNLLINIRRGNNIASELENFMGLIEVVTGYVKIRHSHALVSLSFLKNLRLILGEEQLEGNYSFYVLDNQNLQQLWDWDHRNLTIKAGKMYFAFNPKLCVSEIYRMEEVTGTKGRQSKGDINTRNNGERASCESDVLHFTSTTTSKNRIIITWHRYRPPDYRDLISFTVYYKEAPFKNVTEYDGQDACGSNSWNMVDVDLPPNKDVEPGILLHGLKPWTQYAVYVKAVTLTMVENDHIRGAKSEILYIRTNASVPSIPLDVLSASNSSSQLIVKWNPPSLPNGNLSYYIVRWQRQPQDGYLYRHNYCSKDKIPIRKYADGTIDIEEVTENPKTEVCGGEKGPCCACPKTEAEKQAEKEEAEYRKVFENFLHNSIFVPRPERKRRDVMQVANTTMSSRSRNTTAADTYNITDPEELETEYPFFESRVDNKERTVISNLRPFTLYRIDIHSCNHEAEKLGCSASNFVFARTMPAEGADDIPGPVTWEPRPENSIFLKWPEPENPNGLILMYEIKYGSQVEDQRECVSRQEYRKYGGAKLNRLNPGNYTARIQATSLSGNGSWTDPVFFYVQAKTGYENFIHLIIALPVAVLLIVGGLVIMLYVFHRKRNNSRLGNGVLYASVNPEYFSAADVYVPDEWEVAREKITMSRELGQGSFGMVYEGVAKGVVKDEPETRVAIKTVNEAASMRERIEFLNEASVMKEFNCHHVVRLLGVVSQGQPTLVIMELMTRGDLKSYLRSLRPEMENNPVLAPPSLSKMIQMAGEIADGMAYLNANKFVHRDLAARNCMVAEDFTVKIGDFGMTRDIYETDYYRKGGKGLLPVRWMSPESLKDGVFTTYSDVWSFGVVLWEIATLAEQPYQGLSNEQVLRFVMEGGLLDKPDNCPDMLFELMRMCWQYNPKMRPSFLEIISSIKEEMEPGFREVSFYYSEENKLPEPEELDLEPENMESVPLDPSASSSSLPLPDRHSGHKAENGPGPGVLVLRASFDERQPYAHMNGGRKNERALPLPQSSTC
Sequence of PAK4 (O96013 whole entry, species assumed): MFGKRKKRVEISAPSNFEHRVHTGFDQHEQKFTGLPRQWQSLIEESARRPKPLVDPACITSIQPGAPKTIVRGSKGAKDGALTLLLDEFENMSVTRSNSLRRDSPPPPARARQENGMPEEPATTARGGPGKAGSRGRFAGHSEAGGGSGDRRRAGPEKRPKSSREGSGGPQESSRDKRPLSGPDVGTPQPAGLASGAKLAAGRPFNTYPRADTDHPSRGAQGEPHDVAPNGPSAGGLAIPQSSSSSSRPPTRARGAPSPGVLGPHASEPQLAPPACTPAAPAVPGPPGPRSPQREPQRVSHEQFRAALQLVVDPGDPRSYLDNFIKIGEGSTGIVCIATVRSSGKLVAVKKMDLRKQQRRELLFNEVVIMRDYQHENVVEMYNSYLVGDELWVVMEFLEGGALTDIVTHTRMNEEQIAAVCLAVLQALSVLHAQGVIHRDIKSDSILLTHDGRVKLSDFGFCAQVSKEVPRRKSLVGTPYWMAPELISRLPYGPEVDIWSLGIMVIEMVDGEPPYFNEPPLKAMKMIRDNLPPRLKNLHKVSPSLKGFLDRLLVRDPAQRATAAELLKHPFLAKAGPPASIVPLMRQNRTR
Sequence of RPS6KA3 (RSK2) (P51812 whole entry, species assumed): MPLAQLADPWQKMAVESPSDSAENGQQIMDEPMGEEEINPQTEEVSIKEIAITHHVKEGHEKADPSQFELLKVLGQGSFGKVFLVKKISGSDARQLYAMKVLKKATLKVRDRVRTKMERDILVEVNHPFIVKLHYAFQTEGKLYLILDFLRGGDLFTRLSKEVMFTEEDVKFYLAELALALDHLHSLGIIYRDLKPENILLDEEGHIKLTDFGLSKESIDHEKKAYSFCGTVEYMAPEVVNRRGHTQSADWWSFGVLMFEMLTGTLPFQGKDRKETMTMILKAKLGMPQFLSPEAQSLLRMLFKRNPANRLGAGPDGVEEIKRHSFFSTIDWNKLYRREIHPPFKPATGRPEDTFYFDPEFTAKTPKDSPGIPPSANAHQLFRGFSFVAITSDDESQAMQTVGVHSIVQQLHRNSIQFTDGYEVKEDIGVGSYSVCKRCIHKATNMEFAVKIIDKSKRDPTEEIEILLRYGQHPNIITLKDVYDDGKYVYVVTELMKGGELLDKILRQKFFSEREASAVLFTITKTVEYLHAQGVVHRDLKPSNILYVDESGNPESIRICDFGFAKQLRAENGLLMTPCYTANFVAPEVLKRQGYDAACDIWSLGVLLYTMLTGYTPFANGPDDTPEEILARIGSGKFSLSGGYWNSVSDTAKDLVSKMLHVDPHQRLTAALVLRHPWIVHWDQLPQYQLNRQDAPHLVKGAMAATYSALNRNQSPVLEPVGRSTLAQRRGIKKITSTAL
Sequence of MAPK14 (p38 alpha) (Q16539 whole entry, species assumed): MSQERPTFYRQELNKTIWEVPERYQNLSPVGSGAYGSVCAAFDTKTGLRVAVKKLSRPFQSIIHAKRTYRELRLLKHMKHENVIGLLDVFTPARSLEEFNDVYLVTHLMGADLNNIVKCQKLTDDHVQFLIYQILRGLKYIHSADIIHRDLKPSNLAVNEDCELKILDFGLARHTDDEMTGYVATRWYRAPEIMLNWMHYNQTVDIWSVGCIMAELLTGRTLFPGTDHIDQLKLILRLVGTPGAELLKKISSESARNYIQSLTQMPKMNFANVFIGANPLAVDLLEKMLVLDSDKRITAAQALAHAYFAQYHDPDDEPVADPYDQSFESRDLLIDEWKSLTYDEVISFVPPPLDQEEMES
Sequence of INSR (P06213 28-1382, species assumed): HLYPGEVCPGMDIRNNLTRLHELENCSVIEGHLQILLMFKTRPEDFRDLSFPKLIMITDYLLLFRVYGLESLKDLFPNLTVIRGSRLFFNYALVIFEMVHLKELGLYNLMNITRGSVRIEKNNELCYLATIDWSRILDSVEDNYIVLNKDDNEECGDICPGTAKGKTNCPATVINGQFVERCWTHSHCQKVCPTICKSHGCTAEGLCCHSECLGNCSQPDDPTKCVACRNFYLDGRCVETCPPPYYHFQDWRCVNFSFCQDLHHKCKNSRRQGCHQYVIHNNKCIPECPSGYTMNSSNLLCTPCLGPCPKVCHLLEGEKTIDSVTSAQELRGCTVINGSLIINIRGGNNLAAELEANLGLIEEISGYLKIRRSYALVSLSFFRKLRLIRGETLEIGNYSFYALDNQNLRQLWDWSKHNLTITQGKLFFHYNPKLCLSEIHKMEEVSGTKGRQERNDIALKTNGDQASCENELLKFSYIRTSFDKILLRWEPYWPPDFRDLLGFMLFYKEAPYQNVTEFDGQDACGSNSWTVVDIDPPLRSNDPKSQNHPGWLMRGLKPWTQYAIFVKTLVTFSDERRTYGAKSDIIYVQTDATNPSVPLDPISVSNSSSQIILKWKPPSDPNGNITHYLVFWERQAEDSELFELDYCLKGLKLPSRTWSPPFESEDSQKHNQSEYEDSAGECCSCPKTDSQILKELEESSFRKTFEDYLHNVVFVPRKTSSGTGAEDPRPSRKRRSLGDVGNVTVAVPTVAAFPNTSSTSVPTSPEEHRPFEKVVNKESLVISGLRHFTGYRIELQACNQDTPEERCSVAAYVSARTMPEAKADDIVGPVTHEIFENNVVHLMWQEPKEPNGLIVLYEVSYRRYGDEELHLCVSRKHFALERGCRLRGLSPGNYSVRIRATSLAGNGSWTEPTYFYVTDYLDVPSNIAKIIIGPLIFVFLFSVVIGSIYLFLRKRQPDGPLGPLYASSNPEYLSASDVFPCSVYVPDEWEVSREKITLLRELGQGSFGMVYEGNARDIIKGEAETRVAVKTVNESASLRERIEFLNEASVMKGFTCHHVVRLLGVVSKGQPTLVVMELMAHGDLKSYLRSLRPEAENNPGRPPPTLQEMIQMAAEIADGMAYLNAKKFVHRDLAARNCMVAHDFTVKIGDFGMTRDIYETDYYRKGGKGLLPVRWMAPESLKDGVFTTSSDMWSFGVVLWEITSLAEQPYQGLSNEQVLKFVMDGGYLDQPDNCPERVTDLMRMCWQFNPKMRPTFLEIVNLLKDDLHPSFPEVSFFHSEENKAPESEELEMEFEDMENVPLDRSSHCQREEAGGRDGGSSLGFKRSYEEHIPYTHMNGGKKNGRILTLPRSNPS
Sequence of SRC (P12931 whole entry, species assumed): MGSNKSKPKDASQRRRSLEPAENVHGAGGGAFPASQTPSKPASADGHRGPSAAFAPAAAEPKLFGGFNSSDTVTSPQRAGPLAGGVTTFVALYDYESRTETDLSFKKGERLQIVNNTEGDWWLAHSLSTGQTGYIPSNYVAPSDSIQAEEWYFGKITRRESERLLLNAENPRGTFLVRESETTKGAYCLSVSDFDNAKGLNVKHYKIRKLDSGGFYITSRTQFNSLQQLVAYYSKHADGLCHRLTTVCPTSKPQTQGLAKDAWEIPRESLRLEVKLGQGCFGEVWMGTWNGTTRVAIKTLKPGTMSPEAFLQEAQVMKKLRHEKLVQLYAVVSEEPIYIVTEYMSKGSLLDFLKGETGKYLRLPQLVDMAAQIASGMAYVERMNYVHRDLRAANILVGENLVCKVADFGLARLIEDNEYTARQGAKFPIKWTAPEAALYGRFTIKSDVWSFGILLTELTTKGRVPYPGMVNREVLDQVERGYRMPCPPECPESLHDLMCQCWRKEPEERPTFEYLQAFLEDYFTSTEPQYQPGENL

Compound	inhibition at 10 µM (IKBKB (IKK beta)) [%]	inhibition at 10 µM (PRKACA (PKA)) [%]	inhibition at 10 µM (SRC) [%]	inhibition at 10 µM (INSR) [%]	inhibition at 10 µM (ABL1) [%]	inhibition at 10 µM (MAPK14 (p38 alpha)) [%]	inhibition at 10 µM (ACVR1B (ALK4)) [%]	inhibition at 10 µM (PAK4) [%]	inhibition at 10 µM (IGF1R) [%]	inhibition at 10 µM (RPS6KA3 (RSK2)) [%]
Nc1ncnc2c1ncn2[C@@H]1O[C@H](COC(=O)N[C@@H]2CCN(Cc3ccccc3)C2)[C@@H](O)[C@H]1O [Compound C10]	-11	10	25	3	10	6	4	14	8	8
Nc1ncnc2c1ncn2[C@@H]1O[C@H](COC(=O)N2CCC[C@H]2CO)[C@@H](O)[C@H]1O [Compound C9]	-8	-6	16	4	-2	-4	-5	1	9	1
Nc1ncnc2c1ncn2[C@@H]1O[C@H](COC(=O)NCCN2CCCC2=O)[C@@H](O)[C@H]1O [Compound C22]	-13	0	12	-5	-5	-1	3	7	4	2
CC(C)N1CCC(NC(=O)OC[C@H]2O[C@@H](n3cnc4c(N)ncnc43)[C@H](O)[C@@H]2O)CC1 [Compound C19]	-6	4	-1	0	-3	-1	6	3	-2	1
C[C@@H](NC(=O)OC[C@H]1O[C@@H](n2cnc3c(N)ncnc32)[C@H](O)[C@@H]1O)c1ccc(Cl)cc1 [Compound C4]	-6	20	33	5	11	-1	1	12	11	9
Nc1ncnc2c1ncn2[C@@H]1O[C@H](COC(=O)N2CCN(Cc3ccccc3)CC2CO)[C@@H](O)[C@H]1O (stereo partly shown) [Compound C13]	-7	-1	29	-3	0	0	7	7	2	3
Nc1ncnc2c1ncn2[C@@H]1O[C@H](COC(=O)NC[C@H](O)CO)[C@@H](O)[C@H]1O [Compound C8]	-6	43	-13	2	22	-3	0	19	5	19
Nc1ncnc2c1ncn2[C@@H]1O[C@H](COC(=O)NCCCc2nc3ccccc3[nH]2)[C@@H](O)[C@H]1O [Compound C1]	-10	21	46	0	13	-3	2	15	0	8

Now from value to compound:

inhibition at 10 µM (IKBKB (IKK beta)) [%]	inhibition at 10 µM (PRKACA (PKA)) [%]	inhibition at 10 µM (SRC) [%]	inhibition at 10 µM (INSR) [%]	inhibition at 10 µM (ABL1) [%]	inhibition at 10 µM (MAPK14 (p38 alpha)) [%]	inhibition at 10 µM (ACVR1B (ALK4)) [%]	inhibition at 10 µM (PAK4) [%]	inhibition at 10 µM (IGF1R) [%]	inhibition at 10 µM (RPS6KA3 (RSK2)) [%]	Compound
-11	1	38	-5	-2	18	1	10	1	6	Nc1ncnc2c1ncn2[C@@H]1O[C@H](COC(=O)N2CCC(Cc3ccc(F)cc3)C2)[C@@H](O)[C@H]1O (stereo partly shown) [Compound C66]
-10	-1	8	0	-3	-2	0	-4	2	0	Nc1ncnc2c1ncn2[C@@H]1O[C@H](COC(=O)N2CCN(C(=O)N3CCOCC3)CC2)[C@@H](O)[C@H]1O [Compound C89]
-9	-3	8	-2	1	-4	3	2	11	1	Nc1ncnc2c1ncn2[C@@H]1O[C@H](COC(=O)N2CCS(=O)(=O)CC2)[C@@H](O)[C@H]1O [Compound C100]
-8	-2	58	-2	15	20	-1	7	8	4	CS(=O)(=O)N1CC2(CCN(C(=O)OC[C@H]3O[C@@H](n4cnc5c(N)ncnc54)[C@H](O)[C@@H]3O)CC2)c2ccccc21 [Compound C98]
-10	-2	17	3	-2	0	0	1	8	7	CN(C)CCNC(=O)OC[C@H]1O[C@@H](n2cnc3c(N)ncnc32)[C@H](O)[C@@H]1O [Compound C85]
-12	-4	8	-2	-7	4	1	4	1	2	N#CCCN1CCN(C(=O)OC[C@H]2O[C@@H](n3cnc4c(N)ncnc43)[C@H](O)[C@@H]2O)CC1 [Compound C70]
-8	-1	29	2	2	-6	0	6	8	0	Nc1ncnc2c1ncn2[C@@H]1O[C@H](COC(=O)N2CCN(CCc3ccccc3)CC2)[C@@H](O)[C@H]1O [Compound C26]
-3	3	17	0	10	5	6	4	7	6	CN1CCN(CCNC(=O)OC[C@H]2O[C@@H](n3cnc4c(N)ncnc43)[C@H](O)[C@@H]2O)CC1 [Compound C46]
